One may read the pIC50 as the negative decadic logarithm of the IC50, by convention in mol/L. A high value points to a low IC50. In general, inhibition in vivo refers to the relative decrease from the control value, in per cent. Higher therefore signals strong suppression. The AUC is the area under the concentration-time curve, a measure of exposure. Lower therefore signals low exposure. What is called solubility is how much of the substance goes into solution per volume. A low value points to little dissolved substance. For orientation: Cmax means the maximum level reached in the sampled fluid or tissue. As a reminder, the Tmax is the time from dosing to the highest level.

The record followed here is ChEMBL document CHEMBL3286266, “Development of novel benzomorpholine class of diacylglycerol acyltransferase I inhibitors” (ACS Med Chem Lett, 2014).

pIC50: −log10 of the molar value. In brackets after ≈: the same amount, converted by molar mass. Activity calls are given as the source filed them. No cut-off for these calls is given here.

In one series the target is Cytochrome P450 2C9 (Homo sapiens, UniProt P11712). The series can be described thus: Inhibition of CYP2C9 (unknown origin).
Chain of Cytochrome P450 2C9 (P11712 whole entry): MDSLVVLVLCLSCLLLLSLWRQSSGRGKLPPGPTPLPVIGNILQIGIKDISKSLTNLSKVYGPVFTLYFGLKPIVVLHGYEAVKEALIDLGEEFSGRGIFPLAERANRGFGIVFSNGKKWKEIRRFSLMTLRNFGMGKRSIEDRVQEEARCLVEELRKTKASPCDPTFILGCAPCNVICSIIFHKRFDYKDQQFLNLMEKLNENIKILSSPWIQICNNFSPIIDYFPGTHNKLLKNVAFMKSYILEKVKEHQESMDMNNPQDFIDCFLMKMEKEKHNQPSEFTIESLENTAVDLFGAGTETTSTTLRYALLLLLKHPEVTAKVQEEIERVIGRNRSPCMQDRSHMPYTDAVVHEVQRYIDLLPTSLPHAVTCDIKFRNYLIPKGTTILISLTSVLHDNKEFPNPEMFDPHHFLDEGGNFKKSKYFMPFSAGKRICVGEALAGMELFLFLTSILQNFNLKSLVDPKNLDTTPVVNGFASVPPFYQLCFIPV
For series [1], the target named is T1, Diacylglycerol O-acyltransferase 1 (Mus musculus, UniProt Q9Z2A7).
T1 sequence (Q9Z2A7 whole entry): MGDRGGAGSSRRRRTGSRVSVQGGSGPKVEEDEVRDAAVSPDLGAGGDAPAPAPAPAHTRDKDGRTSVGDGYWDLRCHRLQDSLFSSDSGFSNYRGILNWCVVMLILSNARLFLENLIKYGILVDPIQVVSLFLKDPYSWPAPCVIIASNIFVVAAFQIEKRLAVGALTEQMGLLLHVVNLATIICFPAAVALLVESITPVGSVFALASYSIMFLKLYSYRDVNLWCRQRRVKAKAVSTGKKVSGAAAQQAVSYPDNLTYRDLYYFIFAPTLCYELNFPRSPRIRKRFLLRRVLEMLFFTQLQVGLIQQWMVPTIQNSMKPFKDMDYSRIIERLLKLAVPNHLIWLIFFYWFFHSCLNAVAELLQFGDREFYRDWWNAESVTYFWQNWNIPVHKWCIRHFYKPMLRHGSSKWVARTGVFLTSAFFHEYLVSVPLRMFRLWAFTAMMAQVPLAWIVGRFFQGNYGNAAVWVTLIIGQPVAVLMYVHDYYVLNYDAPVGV
The series can be described thus: Inhibition of mouse DGAT1 expressed in Sf9 insect cells using 1,2-dioleoyl-sn-glycerol and [14C]-palmitoyl-CoA substrate by scintillation counting analysis.

In series [2] the test system is Mus musculus. Put plainly: Reduction in triglycerides level in mouse at 0.3 mg/kg, po after 2 hrs by postprandial triglyceride assay. In kind it is functional.
For series [3], the system named is Mus musculus. The series can be described thus: Reduction in triglycerides level in mouse at 1 mg/kg, po after 2 hrs by postprandial triglyceride assay. In kind it is functional.
Series [4] in a line: Total AUC in rat at 10 mg/kg. The class given is ADME, organism-based. The arrangement: time AUCmax, dose 10 mg/kg. The following applies: in vivo.
The target in series [5] is T2, Diacylglycerol O-acyltransferase 2 (Homo sapiens, UniProt Q96PD7).
T2 sequence (Q96PD7 whole entry): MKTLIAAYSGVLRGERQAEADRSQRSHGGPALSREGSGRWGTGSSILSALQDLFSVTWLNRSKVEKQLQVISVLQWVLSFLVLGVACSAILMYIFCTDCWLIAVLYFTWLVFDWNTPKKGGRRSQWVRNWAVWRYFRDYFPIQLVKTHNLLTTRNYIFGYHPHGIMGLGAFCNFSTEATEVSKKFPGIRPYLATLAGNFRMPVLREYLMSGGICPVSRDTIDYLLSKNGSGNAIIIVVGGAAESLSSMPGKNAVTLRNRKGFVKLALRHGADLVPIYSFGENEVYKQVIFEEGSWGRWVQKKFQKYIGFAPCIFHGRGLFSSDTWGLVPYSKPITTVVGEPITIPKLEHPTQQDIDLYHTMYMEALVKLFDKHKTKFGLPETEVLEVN
Put plainly: (§1) Inhibition of human DGAT2 expressed in Sf9 insect cells using 1,2-dioleoyl-sn-glycerol and [14C]-palmitoyl-CoA substrate by scintillation counting analysis.

Series [6] addresses T3, Sterol O-acyltransferase 2 (Homo sapiens, UniProt O75908).
T3 sequence (O75908 whole entry): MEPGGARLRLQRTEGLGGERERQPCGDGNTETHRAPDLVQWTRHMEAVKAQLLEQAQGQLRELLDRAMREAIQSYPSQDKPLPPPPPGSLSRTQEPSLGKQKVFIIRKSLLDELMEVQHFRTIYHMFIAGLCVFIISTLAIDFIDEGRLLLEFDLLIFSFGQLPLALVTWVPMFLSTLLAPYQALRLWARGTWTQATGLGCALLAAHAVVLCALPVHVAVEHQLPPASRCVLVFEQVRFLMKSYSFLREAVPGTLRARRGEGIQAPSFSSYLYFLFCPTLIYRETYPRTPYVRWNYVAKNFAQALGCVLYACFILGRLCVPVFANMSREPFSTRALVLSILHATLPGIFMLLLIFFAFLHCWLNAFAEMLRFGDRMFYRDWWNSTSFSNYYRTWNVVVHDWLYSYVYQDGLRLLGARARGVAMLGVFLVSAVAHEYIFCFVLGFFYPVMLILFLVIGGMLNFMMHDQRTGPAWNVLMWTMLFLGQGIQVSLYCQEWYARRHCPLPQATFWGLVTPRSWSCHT
Put plainly: Inhibition of human ACAT2 expressed in Sf9 insect cells using [14C]-oleoyl-CoA by scintillation counting analysis.

Series [7] in a line: AUC in mouse at 10 mg/kg. The class given is ADME, organism-based. Set-up: dose 10 mg/kg. The conditions noted are these: plasma.
For series [8], the target named is T4, Sterol O-acyltransferase 1 (Homo sapiens, UniProt P35610).
T4 sequence (P35610 whole entry): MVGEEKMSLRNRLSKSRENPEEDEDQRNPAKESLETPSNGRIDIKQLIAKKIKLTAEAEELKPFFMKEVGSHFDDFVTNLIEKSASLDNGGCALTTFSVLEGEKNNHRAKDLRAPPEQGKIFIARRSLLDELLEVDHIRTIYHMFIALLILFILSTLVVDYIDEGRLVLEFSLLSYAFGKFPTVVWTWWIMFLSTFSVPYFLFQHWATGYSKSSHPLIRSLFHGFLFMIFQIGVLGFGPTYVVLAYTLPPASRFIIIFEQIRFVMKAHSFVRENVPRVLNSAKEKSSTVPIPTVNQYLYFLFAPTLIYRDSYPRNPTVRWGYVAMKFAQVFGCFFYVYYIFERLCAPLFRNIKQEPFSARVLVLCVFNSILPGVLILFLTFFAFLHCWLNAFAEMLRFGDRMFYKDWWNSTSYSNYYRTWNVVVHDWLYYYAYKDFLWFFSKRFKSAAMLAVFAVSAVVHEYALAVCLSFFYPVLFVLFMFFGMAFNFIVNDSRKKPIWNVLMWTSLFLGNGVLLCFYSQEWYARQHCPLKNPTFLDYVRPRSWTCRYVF
Put plainly: Inhibition of human ACAT1 expressed in Sf9 insect cells using [14C]-oleoyl-CoA by scintillation counting analysis.

Series [9] relates to Mus musculus. The series can be described thus: Reduction in triglycerides level in mouse at 3 mg/kg, po after 2 hrs by postprandial triglyceride assay. In kind it is functional.
The target in series [10] is T5, Diacylglycerol O-acyltransferase 2 (Homo sapiens) (UniProt Q96PD7).
T5 sequence (whole entry): T2 sequence (Q96PD7 whole entry)
The description is as §1.

For series [11], the system named is Mus musculus. The series can be described thus: Reduction in triglycerides level in mouse at 10 mg/kg, po after 2 hrs by postprandial triglyceride assay. The class given is functional.
The nature of series [12]: AUC in rat at 10 mg/kg. In kind it is ADME, organism-based. The arrangement: dose 10 mg/kg. The following applies: plasma.
Series [13] can be described thus: Solubility of the compound. In kind it is physicochemical.
A short description of series [14]: Permeability in human Caco2 cells. The class given is ADME, cell-based. The conditions noted are these: Caco-2, read-out: permeability. Background: Passage across Caco-2 layers is used to estimate intestinal permeability.
Series [15] is described as follows: Metabolic stability in human plasma assessed as compound loss measured at 12 hrs at 25 degC. The following applies: read-out: Drug metabolism. In kind it is ADME, cell-free.
The nature of series [16]: Solubility in plasma (unknown origin) at pH 7. In kind it is ADME, cell-free.
Series [17] in a line: Total AUC in rat. In kind it is ADME, organism-based. The arrangement: time AUCmax. The conditions noted are these: in vivo.
A short description of series [18]: Cmax in rat. In kind it is ADME, organism-based. The conditions noted are these: in vivo.
Series [19] is described as follows: Tmax in rat. The conditions noted are these: in vivo. The class given is ADME, organism-based.

Regarding `CCC1CN(C(=O)Nc2ccccc2)c2ccc(-c3ccc(OCC(C)(C)C(=O)O)nc3)cc2O1` (stereo not drawn), the negative-log IC50 (pIC50) against Cytochrome P450 2C9 is 6.30; in [1], 7.14. This compound displayed an inhibition in vivo at 0.3 mg/kg in the series on Mus musculus [2] of 73%. The inhibition in vivo at 1 mg/kg in the series with Mus musculus [3] turned out to be 100%. The same compound returned an AUC in [4] of 46 µM·h.

`C[C@@H]1CN(C(=O)Nc2ccccc2)c2ccc(-c3ccc([C@H]4CC[C@H](CC(=O)O)CC4)cc3)cc2O1`: the pIC50 in series [5] is 5.00; at Cytochrome P450 2C9, 4.85; in series [1], 7.74; in series [6] it was 5.70; in series [8], 5.00. This compound also showed an AUC in [7] of 34 µM·h.

In the case of `O=C(O)C[C@H]1CC[C@H](c2ccc(-c3ccc4c(c3)OCCN4C(=O)Nc3ccc(F)cc3C(F)(F)F)cc2)CC1`, in the series with Mus musculus [9], the inhibition in vivo at 3 mg/kg turned out to be 59%. In series [10], the inhibition result is “inactive”. Also, the pIC50 in [1] is 7.46; in series [6], 5.02. The same compound showed an inhibition in vivo at 10 mg/kg in the series with Mus musculus [11] of 91%. In addition, the AUC in [12] is 23 µM·h. The compound further registered a solubility in series [13] of 100 µM (≈ 55.7 µg/mL). Further, in series [14], the Papp is 23.9 ×10⁻⁶ cm/s.

Compound `O=C(O)C[C@H]1CC[C@H](c2ccc(-c3ccc4c(c3)OCCN4C(=O)Nc3ccccc3)cc2)CC1` displayed an inhibition in vivo at 10 mg/kg in the series with Mus musculus [11] of 52%. The metabolised at 12 h in [15] was determined as 10%.

In the series with Mus musculus [9], `CCCCCCCNC(=O)N1CCOc2cc(-c3ccc([C@H]4CC[C@H](CC(=O)O)CC4)cc3)ccc21` yielded an inhibition in vivo at 3 mg/kg of 48%. Also, the pIC50 in series [1] is 7.57. In series [16], this compound came in with a solubility of 5 µM (≈ 2.46 µg/mL). In addition, in series [14], the Papp was 3.5 ×10⁻⁶ cm/s. Moreover, the AUC in [17] came out at 0.195 µM·h. This compound also came in with a Cmax in series [18] of 65 nM. The Tmax in series [19] was found to be 2 h.
